What is called IC50 is the concentration needed to halve the response being measured. As a reminder, the inhibition is how much of the control response was suppressed.

Each structure is given as a SMILES string. “Also recorded” adds a separate entry of the source.

This is an account of results in patent publication US20040132121A1, “Method of identifying antibacterial compounds” (priority 2000, published 2004).

In test [1] the target is T1, binding of E. coli α to E. coli β (Escherichia coli, UniProt P0A988).
T1 construct: made in house
Description: biochemical. As to conditions: Table 21; Molsci (CMS) compounds, buffer BB37 (10 mM MnCl2); read-out: IC50 α-binding. As for the experimental part:
Recombinantly expressed wild type E. coli α subunit was purified and coated onto 96 well microtitre plates (Falcon flexible plates, Becton Dickinson) at 20 μg/ml in 100 mM Na2CO3, pH9.5 (50 μl/well, 4° C. overnight or 2 h, RT (RT). The plates were washed in WB3 (20 mM Tris (pH 7.5), 0.1 mM EDTA containing 0.05% v/v Tween 20). This buffer was used in all wash steps through out the assay. The plates were then blocked with “blotto” (5% skim milk powder in WB3, 100 μl/well, RT) until required. Immediately before use the plates were washed.
The purified synthetic peptides and β subunit were diluted in BB14 (20 mM Tris, pH 7.5, 10 mM MgCl2, 0.1 mM EDTA). Purified synthetic peptides with concentrations of 9.3-300 and 1000 μg/ml were allowed to complex with purified wild type β subunit (5 μg/ml) in a 96 well microtitre plate (Sarsted, Adelaide, Australia) pre-treated with “blotto” (30 min, RT). The reaction volume was 120 μl. The β subunit also was incubated in the absence of peptide or in the presence of the α subunit at 76.5 (μg/ml in BB14. All samples were incubated for 1 h (RT). Two 50 μl samples were transferred from each well to a corresponding well of the washed and “blocked” α subunit coated plates, and further incubated for 30 min (RT).
The plates were washed and treated with rabbit serum raised to the β subunit. The anti-serum was diluted 1:1000 in WB3 containing 10% “blotto”, dispensed at 50 μl/well and incubated for 12 min (RT). The plates were washed again and treated with sheep anti-rabbit Ig-HRP conjugate (Silenus, Melbourne, Australia) diluted 1:1000 in WB3 containing 10% “blotto” (50 μl/well). The plate was incubated for 12 min (RT). After a final washing step, 1 mM 2,2′-azino-bis (3-ethylbenzthiazoline-6-sulfonic acid) was added (110 μl/well). Colour development was assessed at 405 nm using a plate reader (Multiskan Ascent, Labsystems, Sweden).
For the CMS compounds in the of α:β assays, buffer BB37 replaced buffer BB14. Buffer BB37 contains 10 mM MnCl2 instead of the 10 mM MgCl2 used in BB14. The buffer conditions were changed to improve the reproducibility and sensitivity of the α:β binding assay.
Compounds from the CMS library were dissolved in DMSO at 1 mg/ml in a 96 well tray format. A corresponding slave plate was prepared by adding 115 μl of BB37. Dissolved compounds (5 μl) from the master plate was added to the corresponding well in slave plates giving a final concentration of 41.7 μg/ml.
Compounds were assayed for inhibition of the binding of E. coli α to E. coli β as described in Example 13.
Peptides were assayed for inhibition of the binding of E. coli α to E. coli β as described in Example 6 with the exception that buffer BB37 replaced buffer BB14 in the alpha:beta binding assay. As noted above, BB37 contains 10 mM MnCl2 instead of 10 mM MgCl2 used in BB14. Again, the change in buffer conditions was made to improve the reproducibility and sensitivity of the α:β binding assay.

Test [2] addresses binding of E. coli δ to E. coli β (Escherichia coli, UniProt P0A988). Description: biochemical. The following applies: for IC50: IC50 δ-binding, Table 21.
The subject of test [3] is Enterococcus faecalis ATCC 33186. The experiment in a line: Bacterial growth inhibition screen (A620). The format is cell-based. The following applies: overnight 35° C.; for inhibition at 50 µg/mL: ATCC33186, compound 50 μg/ml, read-out: inhibition of growth of E. faecalis. The procedure:
(§1) Compounds with high similarity scores, or at the intersection of the results of searches using a number of different approaches, and available from the NCI or Molecular Science libraries were obtained and screened for inhibition of growth of E. coli ATCC 35218, Klebsiella pneumoniae ATCC 13885, Pseudomonas aeruginosa ATCC 27853, Staphylococcus aureus ATCC 25923 and Enterococcus faecalis ATCC 33186 as follows. Compounds were supplied dissolved in DMSO at 1 mg/ml in a 96 well tray format. Six corresponding slave plates were prepared by adding 85 μl of sterile water, and 100 μl of two times Muller Hinton broth. Dissolved compounds (5 μl) from the master plate was added to the corresponding well in slave plates giving a final concentration of 50 μg/ml.
(§2) Plates were then transferred to a PC2 Laboratory for inoculation with selected bacterial strains. The strains are freshly grown and diluted in normal saline to 0.5 McFarland Standard (NCCLS Performance standard for Dilution Antimicrobial Susceptibility Testing M7-A4 January 1997). This solution was further diluted 1:10 in normal saline to form the bacterial inoculation culture. 10 μl was used to inoculate each well. Plates were covered and placed in a 35° C. incubator over night before A620 was determined. Tetracycline was used as a standard antimicrobial compound.

The test system of test [4] is Staphylococcus aureus ATCC 25923. Description: Bacterial growth inhibition screen (A620). As to conditions: overnight 35° C.; for inhibition at 50 µg/mL: ATCC25923, compound 50 μg/ml, read-out: inhibition of growth of S. aureus. The test is classed as cell-based. As for the experimental part:
as §1, §2

In the next test the test system is E. coli ATCC 35218. Description: Bacterial growth inhibition screen (A620). The test is classed as cell-based. As to conditions: Escherichia coli, ATCC35218, test conc 35 μg/ml, overnight 35° C., read-out: percent growth inhibition E. coli. The procedure:
as §1, §2

Test [5] deals with Klebsiella pneumoniae ATCC 13885. Description: Bacterial growth inhibition screen (A620). As to conditions: ATCC13885, test conc 35 μg/ml, overnight 35° C., read-out: percent growth inhibition K. pneumoniae. The test is classed as cell-based. As for the experimental part: as §1, §2
Test [6] relates to Pseudomonas aeruginosa ATCC 27853. The experiment in a line: Bacterial growth inhibition screen (A620). The format is cell-based. As to conditions: ATCC27853, test conc 35 μg/ml, overnight 35° C., read-out: percent growth inhibition P. aeruginosa. As for the experimental part: as §1, §2

binding of E. coli δ to E. coli β, sequence (P0A988 whole entry): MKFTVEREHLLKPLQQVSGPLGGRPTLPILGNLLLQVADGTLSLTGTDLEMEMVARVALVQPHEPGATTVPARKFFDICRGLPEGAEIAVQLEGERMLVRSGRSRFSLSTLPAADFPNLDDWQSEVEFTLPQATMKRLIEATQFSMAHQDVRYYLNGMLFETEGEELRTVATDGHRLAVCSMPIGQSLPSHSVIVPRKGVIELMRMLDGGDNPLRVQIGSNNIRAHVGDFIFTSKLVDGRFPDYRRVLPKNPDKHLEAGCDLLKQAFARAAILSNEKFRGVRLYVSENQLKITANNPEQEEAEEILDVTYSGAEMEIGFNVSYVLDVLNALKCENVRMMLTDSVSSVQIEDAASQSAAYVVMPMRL
T1 sequence (P0A988 whole entry): as above

As for `CCC/C(=N\OC/C(Cl)=C/c1ccc(Cl)cc1)C1C(=O)CC(C)(C)CC1=O` [AOC-07877], the IC50 came out at 270 µM in test [1] and 90 µM in test [2]. Besides, the “inhibition of the binding of δ to β” value in test [2] (plate binding assay as in Example 6) is “significantly inhibited; also recorded: significant inhibitory activity”. For the same compound, the inhibition at 50 µg/mL in test [3] and in test [4] was over 50% in each case.
Take `CCC/C(=N\OC/C(C)=C(\O)c1ccc(C)cc1)C1C(=O)CC(CC)(CC)CC1=O` [AOC-08944]: the IC50 in test [1] and in test [2] was over 300 µM in each case. In addition, the inhibition at 50 µg/mL in test [3] and in test [4] was over 50% each time.
On to `CCC/C(=N\OC/C(Cl)=C/c1ccc(Cl)cc1)C1C(=O)CC(C)(C)CC1=O` [Peptide 07877], for which the inhibition at 35 µg/mL in the test on E. coli ATCC 35218 was found to be 17.6%; in test [3] (ATCC33186, test conc 35 μg/ml, A620, read-out: percent growth inhibition E. faecalis), 59.6%; in test [5], 8.3%; in test [6], 3.9%; in test [4] (ATCC25923, test conc 35 μg/ml, A620, read-out: percent growth inhibition S. aureus), 84.7%.
